Values quoted from earlier work in publication PMC4549746, “Zearalenone in the Intestinal Tissues of Immature Gilts Exposed per os to Mycotoxins” (Toxins, 2015).
Like-named read-outs stand apart in the source and are kept apart here.

Conditions: in vitro studies, cited from earlier work

## C[C@H]1CCCC(=O)CCC/C=C/c2cc(O)cc(O)c2C(=O)O1 [ZEN, zearalenone]
Ref 12
  ingested ZEN absorbed in the small intestine: 55%
Ref 26
  ingested ZEN absorbed in the small intestine: 51%
